Paper PMC8673317 (Journal of medicinal chemistry, 2021)
“Also recorded” adds a separate entry of the source. Where a name gives a salt, the structure may show the parent alone.

What was measured:
129Sv6 mice [1] = experiment: Radiant heat tail flick antinociception; type: in vivo, mouse; details: for antinociceptive activity in the tail-flick assay at doses as high as 100 mg/kg: alkaloid 2 po and sc, 9OH sc; for opioid receptor dependence of antinociception (MOR, DOR, KOR KO mice): 129Sv6 (and C57BL/6J) KO mice, KAE 100 mg/kg po in 129Sv6; for effect of naloxone on antinociception: naloxone 1 mg/kg sc 15 min before drug
mKOR [2] = biological target: T1, mKOR (Mus musculus, UniProt P33534); experiment: [35S]GTPγS functional assay in membranes of transfected cells; details: relative to U50, 488H
[3] = Pharmacokinetic study, plasma and brain levels by LC-MS/MS
C57BL/6J mice [4] = experiment: Conditioned place preference and aversion; type: in vivo, mouse; details: alkaloid extract 100 mg/kg/d po, mitragynine 30 mg/kg/d po, 7OH 1 mg/kg/d sc
[5] = Stability in pH 7.4 buffer; type: physicochemical
C57BL/6J mice [6] = experiment: 55 °C warm-water tail-withdrawal; type: in vivo, mouse
rats = details: intravenous (iv) route; cited from earlier work
C57BL/6J mice [7] = experiment: Lethality; type: in vivo, mouse
C57BL/6J mice [8] = experiment: Locomotor; type: in vivo, mouse; details: KAE 45 mg/kg po, mitragynine 20 mg/kg po, 7OH 1 mg/kg sc, MP […] sc
MOR KO mice [9] = experiment: Lethality; type: in vivo, mouse
[10] = Pharmacokinetic study, plasma and brain levels by LC-MS/MS; remark: listed apart in the source
mKOR [11] = biological target: T1, mKOR; details: agonist stimulation, ± SEM; cited from earlier work
Lethality = type: in vivo, mouse; details: 129Sv6, mouse, in vivo, po
129Sv6 mice [12] = experiment: Lethality; type: in vivo, mouse; details: from rodent oral LD50
[13] = pH 7.4
mice = details: po; cited from earlier work
mDOR = mDOR (Mus musculus, UniProt P32300); experiment: [35S]GTPγS functional assay in membranes of transfected cells; details: antagonism of 100 nM agonist
C57BL/6J mice [14] = details: MP 0.76, 1.5, 4 mg/kg sc; Figure 2L reprinted; listed as MP; cited from earlier work
MOR KO mice [15] = experiment: Antagonism of icv KOR/DOR agonist antinociception; type: in vivo, mouse; details: MP 30 mg/kg sc
mMOR [16] = biological target: T2, mMOR (Mus musculus, UniProt P42866); details: read-out: [35S]GTPγS mMOR EC50; agonist stimulation, ± SEM; cited from earlier work
CCR3 = biological target: T3, CCR3 (Homo sapiens, UniProt P51677); experiment: PRESTO-Tango concentration-response; type: cell-based
T3 sequence (P51677 1-355): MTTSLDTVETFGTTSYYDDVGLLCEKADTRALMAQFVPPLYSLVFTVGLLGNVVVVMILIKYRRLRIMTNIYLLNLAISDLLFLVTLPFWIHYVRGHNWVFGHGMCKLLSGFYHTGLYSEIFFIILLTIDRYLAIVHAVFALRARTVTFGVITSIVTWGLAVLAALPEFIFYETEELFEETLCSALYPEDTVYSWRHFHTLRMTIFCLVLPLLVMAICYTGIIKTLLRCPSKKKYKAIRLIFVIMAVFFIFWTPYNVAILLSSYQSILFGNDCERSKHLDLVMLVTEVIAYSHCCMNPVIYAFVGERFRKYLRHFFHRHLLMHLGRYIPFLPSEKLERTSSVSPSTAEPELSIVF

mMOR [17] = biological target: T2, mMOR; experiment: [35S]GTPγS functional assay in membranes of transfected cells; details: read-out: [35S]GTPγS mMOR %Emax
BB3 = biological target: T4, BB3 (Homo sapiens, UniProt P32247); experiment: PRESTO-Tango concentration-response; type: cell-based
T4 sequence (P32247 1-399): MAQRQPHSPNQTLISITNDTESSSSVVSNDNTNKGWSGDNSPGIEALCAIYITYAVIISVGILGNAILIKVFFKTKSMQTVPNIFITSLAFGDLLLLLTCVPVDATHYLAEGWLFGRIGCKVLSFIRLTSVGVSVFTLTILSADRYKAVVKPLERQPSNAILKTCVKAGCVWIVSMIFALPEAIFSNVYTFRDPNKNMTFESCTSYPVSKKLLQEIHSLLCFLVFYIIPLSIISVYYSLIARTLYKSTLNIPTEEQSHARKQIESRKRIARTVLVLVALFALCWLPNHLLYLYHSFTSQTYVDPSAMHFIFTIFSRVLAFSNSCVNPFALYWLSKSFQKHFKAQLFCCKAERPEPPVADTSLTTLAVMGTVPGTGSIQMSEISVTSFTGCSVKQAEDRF

CXCR7 = CXCR7 (Homo sapiens, UniProt P25106); experiment: PRESTO-Tango concentration-response; type: cell-based
[18] = test system: 318 non-olfactory GPCRs (opioid receptors); experiment: PRESTO-Tango GPCRome β-arrestin2 recruitment screen; type: cell-based, human; details: 10 μM
humans = details: cited from earlier work
CD1 mice = details: cited from earlier work
[19] = C57BL/6J, mitragynine 30 mg/kg po

T1 sequence (P33534 whole entry): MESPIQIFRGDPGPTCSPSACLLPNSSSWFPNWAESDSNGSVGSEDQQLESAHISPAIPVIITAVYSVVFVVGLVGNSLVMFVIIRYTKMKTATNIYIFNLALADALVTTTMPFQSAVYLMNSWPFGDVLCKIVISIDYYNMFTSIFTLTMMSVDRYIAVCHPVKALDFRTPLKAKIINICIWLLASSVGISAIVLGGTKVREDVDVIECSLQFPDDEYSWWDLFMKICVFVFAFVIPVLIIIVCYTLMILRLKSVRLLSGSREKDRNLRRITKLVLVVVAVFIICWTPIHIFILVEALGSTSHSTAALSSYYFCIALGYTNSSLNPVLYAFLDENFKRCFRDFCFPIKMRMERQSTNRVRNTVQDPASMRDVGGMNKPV
mDOR, sequence (P32300 whole entry): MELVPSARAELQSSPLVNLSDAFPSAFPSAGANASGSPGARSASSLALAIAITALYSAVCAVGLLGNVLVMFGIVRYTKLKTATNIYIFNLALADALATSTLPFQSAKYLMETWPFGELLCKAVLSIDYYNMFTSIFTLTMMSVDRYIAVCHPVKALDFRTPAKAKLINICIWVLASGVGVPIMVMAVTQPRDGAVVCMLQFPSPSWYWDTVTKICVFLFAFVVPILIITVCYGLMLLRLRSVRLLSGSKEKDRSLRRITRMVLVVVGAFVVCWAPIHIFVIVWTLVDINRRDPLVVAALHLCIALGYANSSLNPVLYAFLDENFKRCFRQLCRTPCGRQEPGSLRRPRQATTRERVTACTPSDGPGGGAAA
T2 sequence (P42866 whole entry): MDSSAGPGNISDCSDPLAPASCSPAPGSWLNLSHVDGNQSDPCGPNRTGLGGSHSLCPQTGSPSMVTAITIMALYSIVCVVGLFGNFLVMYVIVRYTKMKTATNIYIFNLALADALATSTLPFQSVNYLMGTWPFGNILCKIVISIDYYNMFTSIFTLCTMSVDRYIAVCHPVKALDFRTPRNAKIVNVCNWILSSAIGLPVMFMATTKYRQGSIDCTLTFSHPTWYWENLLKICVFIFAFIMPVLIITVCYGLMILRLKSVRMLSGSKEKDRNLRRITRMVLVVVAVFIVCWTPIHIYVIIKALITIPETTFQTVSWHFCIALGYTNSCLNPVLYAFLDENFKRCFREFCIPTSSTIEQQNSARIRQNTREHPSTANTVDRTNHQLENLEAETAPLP
CXCR7, sequence (P25106 whole entry): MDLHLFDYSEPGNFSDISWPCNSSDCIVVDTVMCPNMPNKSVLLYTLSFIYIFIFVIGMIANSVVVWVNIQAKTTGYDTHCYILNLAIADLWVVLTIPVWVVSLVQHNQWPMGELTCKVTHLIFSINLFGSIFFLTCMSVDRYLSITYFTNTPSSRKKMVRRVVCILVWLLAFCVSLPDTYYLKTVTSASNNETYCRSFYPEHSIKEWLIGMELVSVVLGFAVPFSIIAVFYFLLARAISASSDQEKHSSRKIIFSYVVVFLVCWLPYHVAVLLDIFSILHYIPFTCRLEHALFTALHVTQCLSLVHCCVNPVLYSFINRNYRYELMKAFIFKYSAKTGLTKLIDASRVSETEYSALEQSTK

CC[C@H]1CN2CCc3c([nH]c4cccc(OC)c34)[C@@H]2C[C@@H]1/C(=C\OC)C(=O)OC [speciogynine]
antinociceptive activity in the tail-flick assay at doses as high as 100 mg/kg (129Sv6 mice [1]; 129Sv6 mice): inactive
[35S]GTPγS mKOR %Emax (mKOR [2]): no activity

CC[C@@H]1CN2CCc3c([nH]c4cccc(OC)c34)[C@@H]2C[C@@H]1/C(=C\OC)C(=O)OC [mitragynine]
brain concentration of intact mitragynine ([3]; 129Sv6, po, ED80 dose (10 mg/kg)): 12.22 ± 3.4 µM
brain concentration ([3]; 129Sv6, sc 10 mg/kg): 30.06 ± 8.12 µM
conditioned place preference (CPP/CPA) (C57BL/6J mice [4]): displayed CPP; also recorded: produced reward behavior
stability in D2O ([5]; 1H NMR at 1, 5, 10, 24 h, room temperature): stable
stability in pH 7.4 buffer ([5]; LC/MS at 1, 5, 10 and 24 h): very stable
time to peak antinociceptive effect (C57BL/6J mice [6]; both strains (C57BL/6J, 129Sv6), po and sc): 15 to 20 min
opioid receptor dependence of antinociception (MOR, DOR, KOR KO mice) (129Sv6 mice [1]): mediated by MOR (but not DOR and KOR)
effect of naloxone on antinociception (129Sv6 mice [1]): reversed
self-administration (rats): not self-administered
lethality (C57BL/6J mice [7]; 1 g/kg, po, data not shown): 100%
hyperlocomotion compared to morphine (C57BL/6J mice [8]): attenuated
lethality (in words) (MOR KO mice [9]; 1 g/kg po, C57BL/6J or MOR KO mice): death of all animals
level in plasma and brain at 24 h [10, 19]: below detection limits
brain concentration of intact mitragynine ([10]; C57BL/6J, po, ED80 dose (30 mg/kg)): 6.63 ± 0.67 µM
brain concentration ([10]; C57BL/6J, sc 30 mg/kg): 9.74 ± 3.05 µM
brain concentration greater than MOR agonist potency ([10]; po ED80 dose, C57BL/6J and 129Sv6): 30-to-60 fold
[35S]GTPγS mKOR EC50 (mKOR [11]): no activity
LD50 (Lethality): 750 mg/kg
oral LD50 corrected by standard allometric scaling, amount in an adult human (129Sv6 mice [12]): > 2.5 g
increase of half-life in microsomes in the presence of ketoconazole [13]: ~ 5 fold
reported LD50 (mice): 477 mg/kg

CC[C@@H]1CN2CCc3c([nH]c4cccc(O)c34)[C@@H]2C[C@@H]1/C(=C\OC)C(=O)OC [9-hydroxy corynanthedine, 9-hydroxycorynantheidine]
[35S]GTPγS mDOR IC50 (mDOR): no activity

CC[C@@H]1CN2CC[C@]3(Nc4cccc(OC)c4C3=O)[C@@H]2C[C@@H]1/C(=C\OC)C(=O)OC [mitragynine pseudoindoxyl]
antinociceptive potency over sc morphine (C57BL/6J mice [6]; C57BL/6J, sc): about 10 fold
ED50 (C57BL/6J mice [6]; Mus musculus, sc, read-out: antinociceptive ED50 (95% CI), sc): 0.26 mg/kg
antinociceptive potency relative to morphine (C57BL/6J mice [6]; sc, C57BL/6J and 129Sv6 strains): 2–10 fold
opioid receptor dependence of antinociception (MOR, DOR, KOR KO mice) (129Sv6 mice [1]): mediated through MOR, independent of DOR/KOR
more antinociceptive potency than mitragynine (sc) (129Sv6 mice [1]; 129Sv6 mice, sc): > 100 fold
effect of naloxone on antinociception (129Sv6 mice [1]): naloxone-sensitive
inhibition of GI transit (in words) (C57BL/6J mice [14]): showed constipation at all doses
level in plasma and brain at 8 h [10, 19]: no quantifiable
concentration at 20 min ([10]; C57BL/6J, mouse, plasma, sc): 410 ± 120 nM
[35S]GTPγS mKOR EC50 (mKOR [11]): no activity
antagonism of icv SNC 80 antinociception (MOR KO mice [15]; SNC 80 100 nmol icv): antagonized
antagonism of icv U50, 488H antinociception (MOR KO mice [15]; U50, 488H 100 nmol icv): antagonized
EC50 (mMOR [16]): 1.66 ± 0.1 nM

CC[C@@H]1C[N+]2=C(C[C@@H]1/C(=C\OC)C(=O)OC)c1[nH]c3cccc(OC)c3c1CC2 [3-dehydromitragynine, (2S,3S)-2-((E)-1,3-Dimethoxy-3-oxoprop-1-en-2-yl)-3-ethyl-8-methoxy-2,3,4,6,7,12-hexahydro-1H-indolo[2,3-a]quinolizin-5-ium TFA Salt]
activity at CCR3 (in words) (CCR3): Poor (μM) activity
Emax (mMOR [17]): 44 ± 1%
antinociception in mice (in words) (129Sv6 mice [1]; administered directly): not antinociceptive
activity at BB3 (in words) (BB3): Poor (μM) activity
lethality (C57BL/6J mice [7]; 50 mg/kg, sc): 100%
lethality in the presence of KOR antagonist (nor-BNI) and DOR antagonist (NTI) (C57BL/6J mice [7]; 3DM 50 mg/kg sc, norBNI 10 mg/kg sc 24 h, NTI 20 mg/kg sc 15 min pretreatment): lethality was still observed
activity at CXCR7 (in words) (CXCR7): Poor (μM) activity
lethality (MOR KO mice [9]; 50 mg/kg, sc): 100%
increase in luminescence signal, fold of basal, at opioid receptors [18]: > 3 fold of basal
off-target activity (in words) ([18]; Table 1 and Figure 6B): no other notable off–target activity beyond opioid receptors

CN1CC[C@]23c4c5ccc(O)c4O[C@H]2[C@@H](O)C=C[C@H]3[C@H]1C5 [morphine]
antinociceptive ED50 (95% CI), po (129Sv6 mice [1]; 129Sv6 mice, po, at peak effect): 3.32 (2.08–5.32) mg/kg
potency intravenously versus orally (humans): ~ 3 fold
antinociceptive ED50 (CD1 mice): 5 mg/kg

CC[C@@H]1CN2CCc3c([nH]c4cccc(O[C@@H]5O[C@H](C(=O)O)[C@@H](O)[C@H](O)[C@H]5O)c34)[C@@H]2C[C@@H]1/C(=C\OC)C(=O)OC [9-glucuronoyl mitragynine, (2S,3S,5R,6S)-6-(((2S,3S)-2-((E)-1,3-Dimethoxy-3-oxoprop-1-en-2-yl)-3-ethyl-1,2,3,4,6,7,12,12b-octahydroindolo[2,3-a]quinolizin-8-yl)oxy)-3,4,5-trihydroxytetrahydro-2H-pyran-2-carboxylic Acid]
[35S]GTPγS mDOR IC50 (mDOR): no activity

C=C[C@H]1CN2CCc3c([nH]c4cccc(OC)c34)[C@@H]2C[C@@H]1/C(=C\OC)C(=O)OC [paynanthine, paynantheine]
antinociceptive activity in the tail-flick assay at doses as high as 100 mg/kg (129Sv6 mice [1]; 129Sv6 mice): inactive
